Experimental data reported in patent US12454520B2, “Protein degraders and uses thereof” (Kymera Therapeutics, Inc., priority 2018, dated 2025).

The compounds below were run against T1, SMARCA2 (Homo sapiens, UniProt P51531) (assay: MSD SMARCA2 degradation in NCI-H1299 cell line). Conditions: NCI-H1299 cells, percentage of SMARCA2 degradation after 24 hours.
T1 construct: endogenous in cells; host or cells: NCI-H1299
Type: cell-based
Method: Example 14. MSD SMARCA2 Degration in NCI-H1299 Cell Line
Cell Culture: Cells were cultured in exponential growth phase.
Compound Preparation and Treatment: NCI-H1299 cells were seeded into the 96-well plate at 4.0*10^4 cells per 100ul per well. Incubate the plate in the incubator overnight. The next day, compounds were diluted to designed stock concentration by TECAN, then perform a 3 fold, 9-point dilution via transferring 15 uL compound into 30 μL DMSO using Apricot. 200 nL diluted compound from compound source plate were transferred into the 96-intermediate plate as designated by using Echo550, followed with 100 ul culture medium to make the 2× compound solution. Cell plate were changed with 80 ul of fresh culture medium and 80 ul of 2× compound solution was added into the well to achieve the final designed concentration. Cell plate was then shaken at 720 rpm for 5 min and incubated for 24 hours in the incubator.
Sample Preparation: Media was aspirated from the cultures and the plate was washed with PBS twice. 60 ul of pre-chilled PIPA lysis buffer (Boston BioProducts BP-115D) with protease inhibitor were directly added into the well to lyze the cells for 20 minutes at 4° C. Cell lysates were collected.
MSD Procedure: The MSD plate was coated with 40 ul cell lysate and incubated at 4° C. overnight. The next day, the MSD coated bare plate was washed 3 times with 150 ul 1×TBST per well, blocked with 150 ul of blocking buffer per well, and shaken for 1 hour at RT, 600 rpm. Blocking buffer was 3% Blocker A in TBST. MSD plate was then washed 3 times with 150 ul 1×TBST per well and Primary Detection antibody (Rabbit anti-SMARCA2/BRM antibody, 100 μg/ml, ab223735) was added to a final [conc.]: 0.3 ug/ml, 25ul/well and shaken for 1 hour at RT, 600 rpm. Antibody was prepared in Antibody Detection buffer (1% Blocker A in 1×TBST). The MSD plate was then washed 3 times with 150 ul 1×TBST per well. Secondary Detection antibody (SULFO-TAG anti-species antibody) was then added to a final [conc.]: 1 μg/ml, 25 ul/well, and shaken for 1 hour at RT, 600 rpm. Antibodies were prepared in Antibody Detection buffer (1% Blocker A in 1×TBST). MSD plate was washed 3 times with 150 ul 1×TBST per well and 2×MSD reading buffer was added, 150 ul per well, and diluted from 4× with water. MSD instrument was then read.
Data Analysis: The percentage of relative level of SMARCA2 level was calculated following equation below.
LC: A2780, SMARCA2 negative cells. HC: NCI-H1299 cells treated with DMSO.
The letter codes for the percentage of SMARCA2 degradation after 24 hours (Dmax %) include: A (>90% degradation), B (>70-90% degradation), C (50-70% degradation), and D (<50% degradation).

T1 sequence (P51531 whole entry): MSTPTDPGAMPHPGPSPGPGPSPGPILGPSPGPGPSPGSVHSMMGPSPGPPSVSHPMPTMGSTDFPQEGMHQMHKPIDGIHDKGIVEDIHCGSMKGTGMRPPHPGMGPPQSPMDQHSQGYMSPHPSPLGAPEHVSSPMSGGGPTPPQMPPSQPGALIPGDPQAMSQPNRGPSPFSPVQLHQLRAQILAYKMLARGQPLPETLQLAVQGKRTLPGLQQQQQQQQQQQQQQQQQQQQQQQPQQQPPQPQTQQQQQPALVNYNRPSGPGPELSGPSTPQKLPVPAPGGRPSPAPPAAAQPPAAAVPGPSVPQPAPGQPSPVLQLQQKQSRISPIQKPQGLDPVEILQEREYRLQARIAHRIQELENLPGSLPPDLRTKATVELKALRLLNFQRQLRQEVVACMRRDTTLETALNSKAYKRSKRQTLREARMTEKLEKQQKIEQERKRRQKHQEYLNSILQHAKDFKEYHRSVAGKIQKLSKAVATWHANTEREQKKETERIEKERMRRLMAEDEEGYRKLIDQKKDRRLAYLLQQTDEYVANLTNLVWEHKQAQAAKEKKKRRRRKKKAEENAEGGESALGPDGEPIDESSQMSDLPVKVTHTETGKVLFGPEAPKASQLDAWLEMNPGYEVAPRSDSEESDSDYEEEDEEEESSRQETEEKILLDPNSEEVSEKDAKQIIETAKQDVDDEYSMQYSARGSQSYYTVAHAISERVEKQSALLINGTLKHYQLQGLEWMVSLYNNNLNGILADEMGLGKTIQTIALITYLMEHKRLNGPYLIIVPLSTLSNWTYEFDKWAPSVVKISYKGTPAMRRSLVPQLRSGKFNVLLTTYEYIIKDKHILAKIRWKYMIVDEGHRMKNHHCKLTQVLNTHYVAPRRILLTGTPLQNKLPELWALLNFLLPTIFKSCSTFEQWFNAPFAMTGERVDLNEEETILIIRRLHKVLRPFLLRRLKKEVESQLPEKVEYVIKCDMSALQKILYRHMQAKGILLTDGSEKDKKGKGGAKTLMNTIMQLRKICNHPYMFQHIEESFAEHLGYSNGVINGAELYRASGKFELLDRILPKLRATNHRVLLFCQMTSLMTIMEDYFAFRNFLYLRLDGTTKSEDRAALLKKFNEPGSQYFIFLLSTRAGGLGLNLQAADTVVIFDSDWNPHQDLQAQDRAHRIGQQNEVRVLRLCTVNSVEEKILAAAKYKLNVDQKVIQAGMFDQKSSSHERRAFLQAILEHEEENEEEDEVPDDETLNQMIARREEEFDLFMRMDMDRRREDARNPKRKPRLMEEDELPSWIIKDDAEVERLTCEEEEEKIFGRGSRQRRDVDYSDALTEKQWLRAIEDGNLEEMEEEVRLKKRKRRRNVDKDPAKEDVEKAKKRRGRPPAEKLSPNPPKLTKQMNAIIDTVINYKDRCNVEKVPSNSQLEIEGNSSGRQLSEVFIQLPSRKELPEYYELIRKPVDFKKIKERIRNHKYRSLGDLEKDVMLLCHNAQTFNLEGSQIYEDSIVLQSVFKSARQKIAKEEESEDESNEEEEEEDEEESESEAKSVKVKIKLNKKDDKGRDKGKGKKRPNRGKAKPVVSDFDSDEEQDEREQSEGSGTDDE

Row | SMILES | Dmax [%]
1 | Nc1nnc(-c2ccccc2O)cc1-c1cnn(C2CCN(CCCCc3ccc4c(c3)c3cccnc3n4C3CCC(=O)NC3=O)CC2)c1 (stereo not shown) [I-133] | > 90
2 | Nc1nnc(-c2ccccc2O)cc1-c1ccc(CN2CCN(CCCCCCc3cccc4c3c3cccnc3n4C3CCC(=O)NC3=O)CC2)cc1 (stereo not shown) [I-79] | 50 to 70
3 | Nc1nnc(-c2ccccc2O)cc1-c1cnn(CC2CCN(CCCc3cccc4c3c3cccnc3n4C3CCC(=O)NC3=O)CC2)c1 (stereo not shown) [I-97] | > 90
4 | Nc1nnc(-c2ccccc2O)cc1-c1ccc(CN2CCN(CCCCOCCCc3ccc4c(c3)c3cccnc3n4C3CCC(=O)NC3=O)CC2)cc1 (stereo not shown) [I-84] | 50 to 70
5 | Nc1nnc(-c2ccccc2O)cc1-c1cnn(CC2CCN(CCCCOCCCc3cccc4c3c3cccnc3n4C3CCC(=O)NC3=O)CC2)c1 (stereo not shown) [I-89] | < 50
6 | Nc1nnc(-c2ccccc2O)cc1-c1ccc(CN2CCN(CCCCCCCc3cccc4c3c3cccnc3n4C3CCC(=O)NC3=O)CC2)cc1 (stereo not shown) [I-80] | > 90
7 | Nc1nnc(-c2ccccc2O)cc1-c1cnn(CC2CCN(CCCCCc3ccnc4c3c3ccccc3n4C3CCC(=O)NC3=O)CC2)c1 (stereo not shown) [I-104] | > 90
8 | Nc1nnc(-c2ccccc2O)cc1-c1cnn(CC2CCN(CCCc3ccnc4c3c3ccccc3n4C3CCC(=O)NC3=O)CC2)c1 (stereo not shown) [I-103] | > 90
9 | CN(CCCc1ccnc2c1c1ccccc1n2C1CCC(=O)NC1=O)Cc1ccc(N2CCN(c3cc(-c4ccccc4O)nnc3N)CC2)cc1 (stereo not shown) [I-101] | < 50
10 | Nc1nnc(-c2ccccc2O)cc1-c1ccc(CNCCOCCOCCCc2cnc3c(c2)c2ccccc2n3C2CCC(=O)NC2=O)cc1 (stereo not shown) [I-88] | 70 to 90
11 | CN(Cc1ccc(N2CCN(c3cc(-c4ccccc4O)nnc3N)CC2)cc1)Cc1cccc2c1c1cccnc1n2C1CCC(=O)NC1=O (stereo not shown) [I-93] | < 50
12 | Nc1nnc(-c2ccccc2O)cc1-c1cnn(CC2CCN(CCCCc3ccc4c(c3)c3cccnc3n4C3CCC(=O)NC3=O)CC2)c1 (stereo not shown) [I-134] | 70 to 90
13 | Nc1nnc(-c2ccccc2O)cc1-c1cnn([C@H]2CCCN(CCCc3ccc4c(c3)c3cccnc3n4C3CCC(=O)NC3=O)C2)c1 (stereo partly drawn) [I-141, 3-[6-[3-[(3S)-3-[4-[3-amino-6-(2-hydroxyphenyl)pyridazin-4-yl]pyrazol-1-yl]-1-piperidyl]propyl]pyrido[2,3-b]indol-9-yl]piperidine-2,6-dione] | 70 to 90
14 | Nc1nnc(-c2ccccc2O)cc1N1CCN(CCCc2ccnc3c2c2ccccc2n3C2CCC(=O)NC2=O)CC1 (stereo not shown) [I-99] | < 50
15 | CN(CCCCCc1cccc2c1c1cccnc1n2C1CCC(=O)NC1=O)Cc1ccc(N2CCN(c3cc(-c4ccccc4O)nnc3N)CC2)cc1 (stereo not shown) [I-95] | < 50
16 | CN(CCCc1cccc2c1c1cccnc1n2C1CCC(=O)NC1=O)Cc1ccc(N2CCN(c3cc(-c4ccccc4O)nnc3N)CC2)cc1 (stereo not shown) [I-94] | 50 to 70
17 | Nc1nnc(-c2ccccc2O)cc1N1CC2CCC(C1)N2c1ncc(C2CCN(CCCc3ccc4c(c3)c3cccnc3n4C3CCC(=O)NC3=O)CC2)cn1 (stereo not shown) [I-138, 3-[6-[3-[4-[2-[3-[3-amino-6-(2-hydroxyphenyl)pyridazin-4-yl]-3,8-diazabicyclo[3.2.1]octan-8-yl]pyrimidin-5-yl]-1-piperidyl]propyl]pyrido[2,3-b]indol-9-yl]piperidine-2,6-dione] | > 90
18 | CN(Cc1ccc(N2CCN(c3cc(-c4ccccc4O)nnc3N)CC2)cc1)CC1CCN(Cc2cccc3c2c2cccnc2n3C2CCC(=O)NC2=O)CC1 (stereo not shown) [I-87] | < 50
19 | Nc1nnc(-c2ccccc2O)cc1-c1ccc(CN2CCN(CCCCCCCCc3ccc4c(c3)c3cccnc3n4C3CCC(=O)NC3=O)CC2)cc1 (stereo not shown) [I-76] | > 90
20 | CN(CCCCCc1ccnc2c1c1ccccc1n2C1CCC(=O)NC1=O)Cc1ccc(N2CCN(c3cc(-c4ccccc4O)nnc3N)CC2)cc1 (stereo not shown) [I-102] | 50 to 70
21 | Nc1nnc(-c2ccccc2O)cc1N1CCN(CCCc2cccc3c2c2cccnc2n3C2CCC(=O)NC2=O)CC1 (stereo not shown) [I-91] | < 50
22 | Nc1nnc(-c2ccccc2O)cc1-c1ccc(CN2CCN(CCCCCCCCCc3ccc4c(c3)c3cccnc3n4C3CCC(=O)NC3=O)CC2)cc1 (stereo not shown) [I-77] | > 90

Row | SMILES | Dmax [%]
23 | Nc1nnc(-c2ccccc2O)cc1-c1cnn(CC2CCN(Cc3cccc4c3c3cccnc3n4C3CCC(=O)NC3=O)CC2)c1 (stereo not shown) [I-96] | 50 to 70
24 | Nc1nnc(-c2ccccc2O)cc1-c1cnn(C2CCCN(CCCc3ccc4c(c3)c3cccnc3n4C3CCC(=O)NC3=O)C2)c1 (stereo not shown) [I-142] | < 50
25 | Nc1nnc(-c2ccccc2O)cc1-c1ccc(CN2CCN(CCCCCCCc3ccnc4c3c3ccccc3n4C3CCC(=O)NC3=O)CC2)cc1 (stereo not shown) [I-83] | 70 to 90
26 | Nc1nnc(-c2ccccc2O)cc1-c1cnn(C2CCN(Cc3cn(Cc4ccc5c(c4)c4cccnc4n5C4CCC(=O)NC4=O)nn3)CC2)c1 (stereo not shown) [I-146, 3-(6-((4-((4-(4-(3-amino-6-(2-hydroxyphenyl)pyridazin-4-yl)-1H-pyrazol-1-yl)piperidin-1-yl)methyl)-1H-1,2,3-triazol-1-yl)methyl)-9H-pyrido[2,3-b]indol-9-yl)piperidine-2,6-dione] | 70 to 90
27 | Nc1nnc(-c2ccccc2O)cc1N1CCN(Cc2cccc3c2c2cccnc2n3C2CCC(=O)NC2=O)CC1 (stereo not shown) [I-90] | < 50
28 | Nc1nnc(-c2ccccc2O)cc1-c1cnn(C2CCN(CCCCCc3ccc4c(c3)c3cccnc3n4C3CCC(=O)NC3=O)CC2)c1 (stereo not shown) [I-135] | 50 to 70
29 | Nc1nnc(-c2ccccc2O)cc1-c1ccc(CN2CCN(CCCCCc3cccc4c3c3cccnc3n4C3CCC(=O)NC3=O)CC2)cc1 (stereo not shown) [I-78] | 50 to 70
30 | Nc1nnc(-c2ccccc2O)cc1-c1ccc(CN2CCN(Cc3ccc4c(c3)c3cccnc3n4C3CCC(=O)NC3=O)CC2)cc1 (stereo not shown) [I-105] | < 50
31 | Nc1nnc(-c2ccccc2O)cc1-c1ccc(CN2CCN(CCCc3ccc4c(c3)c3cccnc3n4C3CCC(=O)NC3=O)CC2)cc1 (stereo not shown) [I-86] | < 50
32 | Nc1nnc(-c2ccccc2O)cc1-c1cnn(CC2COC(CCCCc3ccc4c(c3)c3cccnc3n4C3CCC(=O)NC3=O)OC2)c1 (stereo not shown) [I-140, 3-(6-(4-(5-((4-(3-amino-6-(2-hydroxyphenyl)pyridazin-4-yl)-1H-pyrazol-1-yl)methyl)-1,3-dioxan-2-yl)butyl)-9H-pyrido[2,3-b]indol-9-yl)piperidine-2,6-dione] | < 50
33 | Nc1nnc(-c2ccccc2O)cc1-c1cnn(CC2CCN(CCCCCc3cccc4c3c3cccnc3n4C3CCC(=O)NC3=O)CC2)c1 (stereo not shown) [I-98] | > 90
34 | Nc1nnc(-c2ccccc2O)cc1-c1ccc(CN2CCN(CCCCCCCc3ccc4c(c3)c3cccnc3n4C3CCC(=O)NC3=O)CC2)cc1 (stereo not shown) [I-75] | 70 to 90
35 | Nc1nnc(-c2ccccc2O)cc1-c1ccc(CN2CCN(CCCCCCc3ccnc4c3c3ccccc3n4C3CCC(=O)NC3=O)CC2)cc1 (stereo not shown) [I-82] | 70 to 90
36 | Nc1nnc(-c2ccccc2O)cc1-c1cnn(C2CCN(CCCCCc3ccnc4c3c3ccccc3n4C3CCC(=O)NC3=O)CC2)c1 (stereo not shown) [I-137] | > 90
37 | Nc1nnc(-c2ccccc2O)cc1-c1cnn(C2CCN(C3CCC(c4ccc5c(c4)c4cccnc4n5C4CCC(=O)NC4=O)CC3)CC2)c1 (stereo not shown) [I-144] | > 90
38 | Nc1nnc(-c2ccccc2O)cc1-c1cnn(C2CCCN(CCCc3ccnc4c3c3ccccc3n4C3CCC(=O)NC3=O)C2)c1 (stereo not shown) [I-143] | > 90
39 | Nc1nnc(-c2ccccc2O)cc1N1CCN(CCCCCc2ccnc3c2c2ccccc2n3C2CCC(=O)NC2=O)CC1 (stereo not shown) [I-100] | < 50
40 | CN(Cc1ccc(N2CCN(c3cc(-c4ccccc4O)nnc3N)CC2)cc1)CC1CCN(Cc2ccc3c(c2)c2cccnc2n3C2CCC(=O)NC2=O)CC1 (stereo not shown) [I-85] | > 90
41 | Nc1nnc(-c2ccccc2O)cc1N1CCN(CCCCCc2cccc3c2c2cccnc2n3C2CCC(=O)NC2=O)CC1 (stereo not shown) [I-92] | < 50
42 | Nc1nnc(-c2ccccc2O)cc1N1CC2CCC(C1)N2c1ncc(C2CCN(CCCc3ccnc4c3c3ccccc3n4C3CCC(=O)NC3=O)CC2)cn1 (stereo not shown) [I-145, 3-(4-(3-(4-(2-(3-(3-amino-6-(2-hydroxyphenyl)pyridazin-4-yl)-3,8-diazabicyclo[3.2.1]octan-8-yl)pyrimidin-5-yl)piperidin-1-yl)propyl)-9H-pyrido[2,3-b]indol-9-yl)piperidine-2,6-dione] | > 90
43 | Nc1nnc(-c2ccccc2O)cc1-c1ccc(CN2CCN(CCCCCc3ccnc4c3c3ccccc3n4C3CCC(=O)NC3=O)CC2)cc1 (stereo not shown) [I-81] | 70 to 90
